Patent publication US4424373A, “Secalonic acids” (priority 1979, dated 1984)
Values after ≈ are worked out from the molar mass of the structure shown.

How the values were obtained:
Bacilus subtilis CPI 219 = experiment: MIC against Bacilus subtilis CPI 219 (Table 6); type: cell-based
Sarcina lutea ATCC 9341 = experiment: MIC against Sarcina lutea ATCC 9341 (Table 6); type: cell-based; conditions: Micrococcus luteus, ATCC9341
[1] = system: Micrococcus flavis ATCC 10240; experiment: MIC against Micrococcus flavis ATCC 10240 (Table 6); type: cell-based; conditions: ATCC10240
[2] = system: Corynebacterium diphtheriae P.W.8; experiment: MIC against Corynebacterium diphtheriae P.W.8 (Table 6); type: cell-based
[3] = system: Trichophyton mentagrophytes IAM 8051; experiment: MIC against Trichophyton mentagrophytes IAM 8051 (Table 6); type: cell-based; conditions: IAM8051

Row | Structure (SMILES) | solubility in chloroform | MIC (Bacilus subtilis CPI 219) [µg/mL] | MIC (Sarcina lutea ATCC 9341) [µg/mL] | MIC [1] [µg/mL] | MIC [2] [µg/mL] | MIC [3] [µg/mL]
1 | COC(=O)C12Oc3ccc(-c4ccc5c(c4O)C(=O)C4=C(O)CC(C)C(O)C4(C(=O)OC)O5)c(O)c3C(=O)C1=C(O)CC(C)C2O (single isomer, unassigned) [Compound I, secalonic acid A having a 2,2'-linkage, reference compound] | insoluble | – | – | – | – | –
2 | COC(=O)C12Oc3ccc(-c4ccc(O)c5c4OC4(C(=O)OC)C(=C(O)CC(C)C4O)C5=O)c(O)c3C(=O)C1=C(O)CC(C)C2O (centres unmarked) [2,4'-SD, secalonic acid D having a 2,4'-linkage] | – | 50 (≈ 78.3 µM) | 12.5 (≈ 19.6 µM) | 25 (≈ 39.1 µM) | 12.5 (≈ 19.6 µM) | 3.1 (≈ 4.85 µM)
3 | COC(=O)C12Oc3c(-c4ccc(O)c5c4OC4(C(=O)OC)C(=C(O)CC(C)C4O)C5=O)ccc(O)c3C(=O)C1=C(O)CC(C)C2O (centres unmarked) [4,4'-SD, secalonic acid D having a 4,4'-linkage] | – | 12.5 (≈ 19.6 µM) | 3.1 (≈ 4.85 µM) | 12.5 (≈ 19.6 µM) | 6.3 (≈ 9.87 µM) | 1.6 (≈ 2.51 µM)
4 | COC(=O)C12Oc3ccc(-c4ccc5c(c4O)C(=O)C4=C(O)CC(C)C(O)C4(C(=O)OC)O5)c(O)c3C(=O)C1=C(O)CC(C)C2O (centres unmarked) [2,2'-SD, secalonic acid D having a 2,2'-linkage, reference compound] | – | > 100 | > 100 | 100 (≈ 157 µM) | 50 (≈ 78.3 µM) | 12.5 (≈ 19.6 µM)
5 | COC(=O)[C@]12Oc3ccc(-c4ccc5c(c4O)C(=O)C4=C(O)C[C@@H](C)[C@H](OC=O)[C@@]4(C(=O)OC)O5)c(O)c3C(=O)C1=C(O)C[C@@H](C)[C@@H]2OC=O [diformyl derivative of Compound I, diformyl derivative of secalonic acid A having a 2,2'-linkage] | soluble | – | – | – | – | –
